Several values for one entry are separate records, joined by “and”; a condition that tells them apart may be missing. Identical values can stand only once. Entries after “also recorded” stand apart in the source; their conditions may differ. Non-standard residues stand in square brackets, D forms with d. Residues, ends and D or L forms follow the SMILES beside them. pGlu = O=C1CC[C@@H](C(=O)O)N1
Tests used:
Format in all cases: in vivo
release of LH = experiment: Release of LH in rats after sc injection; details: for release of LH compared with LHRH: sc injection, dose and time as stated in the source
Excerpt: (§1) The data on the release of LH and FSH in rats by modifications of LHRH with one structural change are in Table II.
(§2) Exclusive of the salmon-LHRH, only one of the six decapeptides with two structural changes had significant activity.

release of FSH [1] = experiment: Release of FSH in rats after sc injection; details: for FSH % change: LHRH = 100
Excerpt: as §1, §2

release of FSH [2] = experiment: Release of FSH in rats after sc injection; details: dose and time as stated in the source
[3] = 15 min. after sc injection, 100 ng, LHRH = 100
[4] = 15 min. after sc injection, 1000 ng, LHRH = 100
[5] = 60 min. after sc injection, 300 ng, LHRH = 100
[6] = 60 min. after sc injection, 3000 ng, LHRH = 100
[7] = release 15 min. after sc injection, dosage of peptide 100 ng
[8] = release 15 min. after sc injection, dosage of peptide 1000 ng
[9] = release 60 min. after sc injection, dosage of peptide 300 ng
[10] = release 60 min. after sc injection, dosage of peptide 3000 ng
[11] = 60 min. after sc injection, 300 ng
[12] = 60 min. after sc injection, 3000 ng
[13] = 15 min. after sc injection, 100 ng, experiment marked *
[14] = 15 min. after sc injection, 1000 ng, experiment marked *
[15] = 30 min. after sc injection, 50 ng, LHRH = 100
[16] = 30 min. after sc injection, 1000 ng, LHRH = 100
[17] = release 15 min. after sc injection, dosage of peptide 50 ng
[18] = release 30 min. after sc injection, dosage of peptide 50 ng
[19] = release 30 min. after sc injection, dosage of peptide 1000 ng

| Compound | LH % change (release of LH; [3]) [%] | LH % change (release of LH; [4]) [%] | LH % change (release of LH; [5]) [%] | LH % change (release of LH; [6]) [%] | LH (release of LH; [7]) [ng/mL] | LH (release of LH; [8]) | LH (release of LH; [9]) [ng/mL] | LH (release of LH; [10]) | FSH % change (release of FSH [1]; [11]) [%] | FSH % change (release of FSH [1]; [12]) [%] | FSH (release of FSH [1]; [7]) [ng/mL] | FSH (release of FSH [1]; [8]) | FSH (release of FSH [1]; [9]) [ng/mL] | FSH (release of FSH [1]; [10]) [ng/mL] | release of FSH compared with LHRH (release of FSH [2]) | release of LH compared with LHRH (release of LH) | also measured |
| --- | --- | --- | --- | --- | --- | --- | --- | --- | --- | --- | --- | --- | --- | --- | --- | --- | --- |
| CC(C)C[C@H](NC(=O)CNC(=O)[C@H](Cc1c[nH]cn1)NC(=O)[C@H](CO)NC(=O)[C@H](Cc1c[nH]c2ccccc12)NC(=O)[C@H](Cc1c[nH]cn1)NC(=O)[C@@H]1CCC(=O)N1)C(=O)N[C@@H](CCC(N)=O)C(=O)N1CCC[C@H]1C(=O)NCC(N)=O [[His^5 Gln^8]--LHRH, p-Glu His Trp Ser His Gly Leu Gln Pro Gly-NH2] ([pGlu]HWSHGLQPG-NH2) | 29 | 47 | 30 | 8.3 | 7 | 27 ng/mL | 3.3 | 6.8 ng/mL | 48 | 39 | 343 | 416 ng/mL | 283 | 456 | – | – | – |
| CC(C)C[C@H](NC(=O)CNC(=O)[C@H](Cc1c[nH]cn1)NC(=O)[C@H](CO)NC(=O)[C@H](Cc1c[nH]c2ccccc12)NC(=O)[C@H](Cc1c[nH]cn1)NC(=O)[C@@H]1CCC(=O)N1)C(=O)N[C@@H](CC(C)C)C(=O)N1CCC[C@H]1C(=O)NCC(N)=O [[His^5 Leu^8]--LHRH, p-Glu His Trp Ser His Gly Leu Leu Pro Gly-NH2] ([pGlu]HWSHGLLPG-NH2) | 0.8 | 5 | 20 | 2.2 | 0.2 | 3.3 ng/mL | 2.2 | 1.8 ng/mL | 44 | 18 | 202 | 276 ng/mL | 261 | 205 | – | – | FSH % change (release of FSH [1]; 15 min. after sc injection, 100 ng): 43%; FSH % change (release of FSH [1]; 15 min. after sc injection, 1000 ng): 57% |
| CC(C)C[C@H](NC(=O)[C@H](Cc1c[nH]c2ccccc12)NC(=O)CNC(=O)[C@H](Cc1c[nH]cn1)NC(=O)[C@H](CO)NC(=O)[C@H](Cc1c[nH]c2ccccc12)NC(=O)[C@H](Cc1c[nH]cn1)NC(=O)[C@@H]1CCC(=O)N1)C(=O)N1CCC[C@H]1C(=O)NCC(N)=O [[His^5 Trp^7 Leu^8]--LHRH, p-Glu His Trp Ser His Gly Trp Leu Pro Gly-NH2] ([pGlu]HWSHGWLPG-NH2) | 38 | 40 | 23 | 6 | 9 | 23 ng/mL | 2.5 | 5 ng/mL | 62 | 32 | 383 | 445 ng/mL | 369 | 376 | equivalent in activity to LHRH | – | LH released, % of the LH released by LHRH (release of LH; levels of 100 and 1000 ng): up to 50%; release of FSH compared with LHRH (release of FSH [2]; Trp^7 Leu^8 ]-LHRH): released as much FSH as LHRH |
| N=C(N)NCCC[C@H](NC(=O)[C@H](Cc1c[nH]c2ccccc12)NC(=O)CNC(=O)[C@H](Cc1c[nH]cn1)NC(=O)[C@H](CO)NC(=O)[C@H](Cc1c[nH]c2ccccc12)NC(=O)[C@H](Cc1c[nH]cn1)NC(=O)[C@@H]1CCC(=O)N1)C(=O)N1CCC[C@H]1C(=O)NCC(N)=O [[His^5 Trp^7]--LHRH, p-Glu His Trp Ser His Gly Trp Arg Pro Gly-NH2] ([pGlu]HWSHGWRPG-NH2) | – | – | – | – | 30 | 39 ng/mL and 78 ng/mL | 26.0 | 138 ng/mL | – | – | 502 | 562 ng/mL and 429 ng/mL | 624 | 1448 | as active as LHRH; also recorded: equivalent to that from LH; also recorded: released significantly more LH and FSH than did LHRH at a dosage of 50 ng; also recorded: equivalent to that released by the same dosage of LHRH; also recorded: higher than that for LH; also recorded: both peptides had comparable activities | as active as LHRH; also recorded: significantly positive, but less than that at the higher dosage; also recorded: released significantly more LH and FSH than did LHRH at a dosage of 50 ng; also recorded: equivalent to that released by the same dosage of LHRH; also recorded: significantly positive, but lower than that released at the higher dose level; also recorded: both peptides had comparable activities | LH % change (release of LH; 15 min. after sc injection, 50 ng, LHRH = 100): 188%; LH (release of LH; [13]): 13 ng/mL; LH (release of LH; [14]): 23 ng/mL; LH % change (release of LH; 15 min. after sc injection, 1000 ng, experiment marked *, LHRH* = 100): 59%; LH % change (release of LH; [15]): 67%; LH % change (release of LH; [16]): 40%; LH (release of LH; [17]): 30 ± 3 ng/mL; LH (release of LH; [18]): 12 ng/mL; LH (release of LH; [19]): 51 ng/mL; FSH % change (release of FSH [1]; 15 min. after sc injection, 50 ng): 121%; FSH (release of FSH [1]; [13]): 346 ng/mL; FSH (release of FSH [1]; [14]): 456 ng/mL; FSH (release of FSH [1]; [17]): 663 ng/mL; FSH (release of FSH [1]; [18]): 387 ng/mL; FSH (release of FSH [1]; [19]): 857 ng/mL |
| CC(C)C[C@H](NC(=O)CNC(=O)[C@H](Cc1c[nH]cn1)NC(=O)[C@H](CO)NC(=O)[C@H](Cc1c[nH]c2ccccc12)NC(=O)[C@H](Cc1c[nH]cn1)NC(=O)[C@@H]1CCC(=O)N1)C(=O)N[C@@H](Cc1ccc(O)cc1)C(=O)N1CCC[C@H]1C(=O)NCC(N)=O [[His^5 Tyr^8]--LHRH, p-Glu His Trp Ser His Gly Leu Tyr Pro Gly-NH2] ([pGlu]HWSHGLYPG-NH2) | – | – | – | 3.4 | – | – | – | 2.8 ng/mL | – | 42 | – | – | – | 495 | – | – | LH % change (release of LH; [15]): 3%; LH % change (release of LH; [16]): 4%; LH (release of LH; [18]): 0.5 ng/mL; LH (release of LH; [19]): 5.0 ng/mL; FSH % change (release of FSH [1]; 30 min. after sc injection, 1000 ng): 3%; FSH (release of FSH [1]; [18]): 235 ng/mL; FSH (release of FSH [1]; [19]): 534 ng/mL |
| CC(C)C[C@H](NC(=O)CNC(=O)[C@H](Cc1c[nH]cn1)NC(=O)[C@H](CO)NC(=O)[C@H](Cc1c[nH]c2ccccc12)NC(=O)[C@H](Cc1c[nH]cn1)NC(=O)[C@@H]1CCC(=O)N1)C(=O)N[C@@H](CCCNC(=N)N)C(=O)N1CCC[C@H]1C(=O)NCC(N)=O [[His^5]--LHRH, p-Glu His Trp Ser His Gly Leu Arg Pro Gly-NH2] | – | – | – | – | – | – | 14 | 142 ± 29 ng/mL and 142 ng/mL | – | 229 | – | – | 652 | 2684 | twice as active as LHRH at the high dosage; also recorded: two times as effective in the release of FSH at the higher dose level | as active as LHRH at two dose levels; also recorded: equivalent to LHRH in the release of LH | – |
| NC(=O)CC[C@H](NC(=O)[C@H](Cc1c[nH]c2ccccc12)NC(=O)CNC(=O)[C@H](Cc1ccc(O)cc1)NC(=O)[C@H](CO)NC(=O)[C@H](Cc1c[nH]c2ccccc12)NC(=O)[C@H](Cc1c[nH]cn1)NC(=O)[C@@H]1CCC(=O)N1)C(=O)N1CCC[C@H]1C(=O)NCC(N)=O [[Trp^7 Gln^8]--LHRH, p-Glu His Trp Ser Tyr Gly Trp Gln Pro Gly-NH2] ([pGlu]HWSYGWQPG-NH2) | 29 | 60 | 29 | 9.1 | 7 | 34 ng/mL | 3.2 | 7.5 ng/mL | 58 | 40 | 421 | 502 ng/mL | 345 | 474 | – | – | – |
| NC(=O)CNC(=O)[C@@H]1CCCN1C(=O)[C@H](Cc1ccc(O)cc1)NC(=O)[C@H](Cc1c[nH]c2ccccc12)NC(=O)CNC(=O)[C@H](Cc1ccc(O)cc1)NC(=O)[C@H](CO)NC(=O)[C@H](Cc1c[nH]c2ccccc12)NC(=O)[C@H](Cc1c[nH]cn1)NC(=O)[C@@H]1CCC(=O)N1 [[Trp^7 Tyr^8]--LHRH, p-Glu His Trp Ser Tyr Gly Trp Tyr Pro Gly-NH2] ([pGlu]HWSYGWYPG-NH2) | – | – | 25 | 4.6 | – | – | 2.8 | 3.8 ng/mL | 35 | 30 | – | – | 209 | 352 | – | – | – |
| CC(C)C[C@H](NC(=O)CNC(=O)[C@H](Cc1ccc(O)cc1)NC(=O)[C@H](CO)NC(=O)[C@H](Cc1c[nH]c2ccccc12)NC(=O)[C@H](Cc1c[nH]cn1)NC(=O)[C@@H]1CCC(=O)N1)C(=O)N[C@@H](Cc1ccc(O)cc1)C(=O)N1CCC[C@H]1C(=O)NCC(N)=O [[Tyr^8]--LHRH, p-Glu His Trp Ser Tyr Gly Leu Tyr Pro Gly-NH2] | – | – | 23 | 3 | – | – | 2.5 | 2.7 ng/mL | 48 | 38 | – | – | 285 | 449 | – | relatively low activities | release of FSH compared with LHRH (release of FSH [1]; sc injection, dose and time as stated in the source): relatively low activities |
